Test systems include XF 498 CNS; DMS 114 small cell lung; HOP-18 NSCLC; RXF-631 renal.
Assay in all cases: NCI anticancer screen, dose series, 48 h

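Briefly, cells in 96-well plates were exposed to five compound concentrations for 48 h, and endpoints were estimated by linear interpolation. TGI denotes the concentration required for complete inhibition of growth.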 Bounds are passed on as bounds.

For `O=C1C(=O)N(c2nccs2)C(=O)C(=O)C1c1nc2ccccc2s1`, the TGI in the experiment with XF 498 CNS, in the experiment on DMS 114 small cell lung and in the experiment on HOP-18 NSCLC was > 100 µM each time.
In the case of `CCN(CC)c1ccc(N=C2C=C(Cl)C(=O)c3ncccc32)c(C)c1`, the TGI in the experiment with XF 498 CNS was 18.7 µM; with RXF-631 renal it was 35.3 µM; in the experiment on DMS 114 small cell lung it was 8.19 µM; in the experiment with HOP-18 NSCLC, 9.75 µM.
With `COc1nc2c(nc(N)n2C2OCC(O)C(O)C2O)c(=O)n1C` (stereo not given), the TGI with XF 498 CNS, in the experiment with DMS 114 small cell lung and in the experiment on HOP-18 NSCLC was > 100 µM throughout.
With `O=C(Nc1ccc(Br)cc1)C(=O)C(C(=O)c1ccccc1F)C1OC(=O)c2ccccc21` (stereo not given), the TGI was > 100 µM in the experiment on RXF-631 renal, 62.8 µM with DMS 114 small cell lung and > 100 µM in the experiment with HOP-18 NSCLC.
As for `CC1(C(=O)O)CCOc2ccccc21` (stereo not given), the TGI with DMS 114 small cell lung and in the experiment with HOP-18 NSCLC was > 100 µM each time.
As to `COc1cc(/C=C\c2ccc(Br)cc2)cc(OC)c1OC`, the TGI with RXF-631 renal was > 100 µM; with DMS 114 small cell lung, 69.1 µM.
In the case of `Cc1c(-c2nnc(-c3ccccc3)o2)c(=O)n(-c2ccccc2)n1C`, the TGI in the experiment with XF 498 CNS, in the experiment on DMS 114 small cell lung and with HOP-18 NSCLC was > 100 µM throughout.
On to `N#Cc1ccc(Oc2cccc(Oc3ccccc3)c2)cc1C#N`, for which the TGI in the experiment on RXF-631 renal and in the experiment on DMS 114 small cell lung was > 100 µM in each case.
For the compound `COC12CCC(C(C(=O)c3ccccc3)=C1C(=O)c1ccccc1)C(O)C2` (stereo not given), the TGI with XF 498 CNS, in the experiment with RXF-631 renal and in the experiment on DMS 114 small cell lung was > 100 µM in each case.
For `O=C(Nc1nc2ccc([N+](=O)[O-])cc2s1)C(=O)C(C(=O)c1ccncc1)C1OC(=O)c2ccccc21` (stereo not given), the TGI in the experiment on XF 498 CNS, in the experiment on RXF-631 renal, with DMS 114 small cell lung and in the experiment on HOP-18 NSCLC was > 100 µM each time.
Take `CS/C(c1ccccc1)=[N+](\[O-])Cc1ccccc1`: the TGI with XF 498 CNS, in the experiment on DMS 114 small cell lung and in the experiment with HOP-18 NSCLC was > 100 µM each time.
On to `O=C(N/C(=C\c1ccc(/C=C(\NC(=O)c2ccccc2)c2nc3ccccc3s2)cc1)c1nc2ccccc2s1)c1ccccc1`, for which the TGI in the experiment with RXF-631 renal was determined as 20.6 µM; in the experiment on DMS 114 small cell lung, 25.9 µM; with HOP-18 NSCLC, 26 µM.
For `O=C(O)c1ccccc1N=Nc1ccc2oc(=O)c(C(=O)Nc3ccccc3)cc2c1`, the TGI with XF 498 CNS is > 100 µM; in the experiment with DMS 114 small cell lung it was 76.9 µM; in the experiment with HOP-18 NSCLC it was > 100 µM.
As for `CCOC(=O)C(C)(C)Oc1ccc2c(-c3ccc(Cl)cc3)c(-c3ccc(Cl)cc3)c(=O)oc2c1`, the TGI with RXF-631 renal and in the experiment with DMS 114 small cell lung was > 100 µM each time.
Take `OCC(O)C(O)C(O)c1nn(-c2ccccc2)c2nc3cc(Cl)c(Cl)cc3nc12` (stereo not given): the values for the TGI in the experiment with XF 498 CNS, in the experiment on DMS 114 small cell lung and with HOP-18 NSCLC were 69.3 µM, > 100 µM and > 100 µM, respectively.
`O=C(NC1C2CC3CC(C2)CC1C3)/C(Cl)=C1/Sc2ccccc2NC1=O` (stereo not given): the TGI in the experiment with XF 498 CNS, in the experiment on DMS 114 small cell lung and with HOP-18 NSCLC was > 100 µM in each case.
`CC1CCCc2c1c1ccc3c(O)cccc3c1oc2=O` (stereo not given): the results for the TGI with XF 498 CNS, in the experiment with DMS 114 small cell lung and with HOP-18 NSCLC were > 100 µM, 76.3 µM and > 100 µM, respectively.
In the case of `COc1ccc2c(CCNC(=O)/C=C/c3ccccc3)c(C(C)=O)[nH]c2c1[N+](=O)[O-]`, the figures for the TGI in the experiment on RXF-631 renal and in the experiment on DMS 114 small cell lung were 28.4 µM and > 100 µM, respectively.
In the case of `CCOC(=O)N1C(c2ccccc2)C=CC(c2ccccc2)N1C(=O)OCC` (stereo not given), the TGI in the experiment on XF 498 CNS, with DMS 114 small cell lung and with HOP-18 NSCLC was > 100 µM each time.
As to `Cc1ccccc1C(=O)Oc1ccc(OCc2ccccc2)cc1`, the TGI with XF 498 CNS, in the experiment with DMS 114 small cell lung and in the experiment on HOP-18 NSCLC was > 100 µM each time.
As to `Cn1c(=O)c(C(=O)NC(=O)NCCCCCOC(=O)CCCCCCCCCCC(=O)OCCCCCNC(=O)NC(=O)c2cn(Cc3ccccc3)c(=O)n(C)c2=O)cn(Cc2ccccc2)c1=O`, the TGI in the experiment on XF 498 CNS, with DMS 114 small cell lung and in the experiment with HOP-18 NSCLC was > 100 µM each time.
On to `Cn1ccnc1CCc1ccc(Cl)c(Cl)c1`, for which the TGI with DMS 114 small cell lung and in the experiment with HOP-18 NSCLC was > 100 µM throughout.
Turning to `CC(C)CC12CC3CCC(CNC1=O)C32C` (stereo not given), the TGI with XF 498 CNS, in the experiment on DMS 114 small cell lung and in the experiment with HOP-18 NSCLC was > 100 µM in each case.
`CCOC(=O)C1=C(Nc2ccc(Br)cc2)OC/C1=N\NC(=O)c1ccccc1O`: in the experiment on HOP-18 NSCLC, the TGI was > 100 µM.
Take `CC(=O)[O-].[Zn].c1ccc(/C(=N\Nc2ccccn2)c2ccccn2)cc1`: the TGI stood at 0.0192 µM in the experiment on DMS 114 small cell lung and 0.918 µM in the experiment with HOP-18 NSCLC.
Regarding `NCc1c(C(N)=O)ncn1Cc1ccccc1`, the TGI in the experiment on XF 498 CNS, in the experiment on DMS 114 small cell lung and in the experiment on HOP-18 NSCLC was > 100 µM each time.
Turning to `C=C1CCCC2[C@](C)(CC3=C(O)C(=O)C=C(OC)C3=O)[C@@H](C)CC[C@]12C` (stereo not given in full), the TGI in the experiment on XF 498 CNS is 56.7 µM; in the experiment on RXF-631 renal, > 100 µM; in the experiment with DMS 114 small cell lung it was 7.61 µM; with HOP-18 NSCLC, 8.59 µM.
